Experimental data taken from ChEMBL document CHEMBL1909046, “DrugMatrix in vitro pharmacology data”.

Experiments:
Estrogen receptor = target: T1, Estrogen receptor (Homo sapiens, UniProt P03372); conditions: sf9; further: in other assays of this panel Not Active means under 50% inhibition at 10 µM
T1 sequence (P03372 whole entry): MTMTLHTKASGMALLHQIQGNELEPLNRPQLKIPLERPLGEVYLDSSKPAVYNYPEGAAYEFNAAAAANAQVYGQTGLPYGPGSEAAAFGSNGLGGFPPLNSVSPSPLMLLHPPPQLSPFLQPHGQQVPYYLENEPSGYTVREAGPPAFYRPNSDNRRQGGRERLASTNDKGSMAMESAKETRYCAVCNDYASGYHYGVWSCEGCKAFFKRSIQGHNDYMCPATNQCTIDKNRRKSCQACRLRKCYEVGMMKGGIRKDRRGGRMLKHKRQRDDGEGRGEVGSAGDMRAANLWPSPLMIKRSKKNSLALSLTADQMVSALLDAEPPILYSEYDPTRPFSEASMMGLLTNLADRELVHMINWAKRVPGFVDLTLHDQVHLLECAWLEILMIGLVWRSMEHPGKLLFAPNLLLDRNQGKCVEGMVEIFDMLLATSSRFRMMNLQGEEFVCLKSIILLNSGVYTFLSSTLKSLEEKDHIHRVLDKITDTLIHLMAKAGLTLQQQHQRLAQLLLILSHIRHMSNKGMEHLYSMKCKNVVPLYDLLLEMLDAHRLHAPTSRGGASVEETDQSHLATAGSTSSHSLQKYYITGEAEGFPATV

[1] = target: T2, C-C chemokine receptor type 4 (Homo sapiens, UniProt P51679); type: cell membranes, Membrane; conditions: chem-1; further: in other assays of this panel Not Active means under 50% inhibition at 10 µM
T2 sequence (P51679 whole entry): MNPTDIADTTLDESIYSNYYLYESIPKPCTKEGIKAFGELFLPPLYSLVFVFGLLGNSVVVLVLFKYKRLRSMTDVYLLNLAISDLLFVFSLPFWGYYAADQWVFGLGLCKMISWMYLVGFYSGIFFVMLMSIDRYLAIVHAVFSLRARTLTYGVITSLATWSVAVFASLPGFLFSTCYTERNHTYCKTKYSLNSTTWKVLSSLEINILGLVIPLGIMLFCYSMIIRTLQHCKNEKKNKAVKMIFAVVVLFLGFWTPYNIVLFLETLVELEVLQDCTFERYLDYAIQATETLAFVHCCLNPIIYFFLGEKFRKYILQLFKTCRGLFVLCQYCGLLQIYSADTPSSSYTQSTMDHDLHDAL

[2] = DRUGMATRIX: Interleukin IL-1 radioligand binding (ligand: [125I] interleukin 1beta); type: cell membranes, Membrane; conditions: nih3t3; Not Active = under 50% inhibition at 10 µM
[3] = target: T3, 5-hydroxytryptamine receptor 2C (Homo sapiens, UniProt P28335); test: DRUGMATRIX: Serotonin (5-Hydroxytryptamine) 5-HT2C radioligand binding (ligand: [3H] Mesulergine); type: cell membranes, CHO-K1, Membrane; conditions: cho-k1; Not Active = under 50% inhibition at 10 µM
T3 sequence (P28335 whole entry): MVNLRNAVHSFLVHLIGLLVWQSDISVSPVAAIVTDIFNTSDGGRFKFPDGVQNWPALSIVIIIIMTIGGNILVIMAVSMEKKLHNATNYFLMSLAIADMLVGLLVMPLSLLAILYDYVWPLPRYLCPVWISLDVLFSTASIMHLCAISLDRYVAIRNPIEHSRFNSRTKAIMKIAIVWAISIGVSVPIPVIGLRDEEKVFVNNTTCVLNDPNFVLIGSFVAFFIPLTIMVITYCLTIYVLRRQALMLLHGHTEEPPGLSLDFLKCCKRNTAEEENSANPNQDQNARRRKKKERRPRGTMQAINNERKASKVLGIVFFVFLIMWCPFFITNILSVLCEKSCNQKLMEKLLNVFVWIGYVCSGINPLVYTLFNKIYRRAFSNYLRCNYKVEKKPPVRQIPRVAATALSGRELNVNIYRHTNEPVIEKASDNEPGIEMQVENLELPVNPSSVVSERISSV

Cytochrome P450 1A2 = target: T4, Cytochrome P450 1A2 (Homo sapiens, UniProt P05177); conditions: bti-tn-5b1-4; further: in other assays of this panel Not Active means under 50% inhibition at 10 µM
T4 sequence (P05177 whole entry): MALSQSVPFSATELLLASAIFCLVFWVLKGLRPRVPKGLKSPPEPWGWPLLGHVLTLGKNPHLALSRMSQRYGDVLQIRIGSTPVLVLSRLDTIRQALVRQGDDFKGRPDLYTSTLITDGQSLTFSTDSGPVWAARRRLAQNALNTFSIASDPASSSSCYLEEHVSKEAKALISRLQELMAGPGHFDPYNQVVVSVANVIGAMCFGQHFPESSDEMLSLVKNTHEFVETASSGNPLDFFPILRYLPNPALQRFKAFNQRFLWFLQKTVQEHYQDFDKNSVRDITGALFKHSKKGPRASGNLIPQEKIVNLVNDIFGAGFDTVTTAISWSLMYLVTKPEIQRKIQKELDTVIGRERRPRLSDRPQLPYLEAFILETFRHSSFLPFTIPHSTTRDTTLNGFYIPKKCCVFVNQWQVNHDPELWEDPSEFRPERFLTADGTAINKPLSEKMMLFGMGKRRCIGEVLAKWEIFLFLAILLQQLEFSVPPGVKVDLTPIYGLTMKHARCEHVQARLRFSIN

[4] = target: T5, Polyunsaturated fatty acid lipoxygenase ALOX15 (Oryctolagus cuniculus, UniProt P12530); test: biochemical; type: tissue-based, Reticulocytes; conditions: reticulocytes;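 further: inhibition of 15-lipoxygenase enzyme activity measured with linoleic acid as the substrate; in other assays of this panel Not Active means under 50% inhibition at 10 µM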
T5 sequence (P12530 whole entry): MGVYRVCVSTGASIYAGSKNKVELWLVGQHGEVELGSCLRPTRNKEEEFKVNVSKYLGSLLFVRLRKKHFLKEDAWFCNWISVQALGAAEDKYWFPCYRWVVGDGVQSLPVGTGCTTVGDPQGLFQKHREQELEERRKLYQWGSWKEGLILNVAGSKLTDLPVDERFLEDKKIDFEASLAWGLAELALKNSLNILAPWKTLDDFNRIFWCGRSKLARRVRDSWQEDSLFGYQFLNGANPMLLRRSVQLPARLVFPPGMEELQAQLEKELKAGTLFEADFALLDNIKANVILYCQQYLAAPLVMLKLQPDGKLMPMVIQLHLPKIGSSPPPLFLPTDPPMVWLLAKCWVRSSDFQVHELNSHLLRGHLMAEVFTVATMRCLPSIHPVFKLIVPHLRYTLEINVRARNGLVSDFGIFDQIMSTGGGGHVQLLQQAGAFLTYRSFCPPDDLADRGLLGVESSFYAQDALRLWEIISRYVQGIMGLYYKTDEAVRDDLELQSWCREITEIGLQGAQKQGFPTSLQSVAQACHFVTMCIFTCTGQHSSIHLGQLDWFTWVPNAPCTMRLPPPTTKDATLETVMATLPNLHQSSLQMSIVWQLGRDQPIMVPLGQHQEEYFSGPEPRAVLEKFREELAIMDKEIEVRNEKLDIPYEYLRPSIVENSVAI

[5] = DRUGMATRIX: Glutamate, Kainate radioligand binding (ligand: [3H] Kainic acid); type: cell membranes, Rattus norvegicus, Wistar, Brain, Membrane; conditions: Not Active = under 50% inhibition at 10 µM

Nc1cc(N2CCCCC2)nc(N)[n+]1[O-] [MINOXIDIL]
Not Active: IC50 (Estrogen receptor) | IC50 [1] | IC50 [2] | Ki [2] | IC50 [3] | IC50 (Cytochrome P450 1A2) | Ki (Cytochrome P450 1A2) | IC50 [4] | IC50 [5] | Ki [5]

CO[C@H]1/C=C/O[C@@]2(C)Oc3c(C)c(O)c4c(O)c(c(/C=N/N5CCN(C6CCCC6)CC5)c(O)c4c3C2=O)NC(=O)/C(C)=C\C=C\[C@H](C)[C@H](O)[C@@H](C)[C@@H](O)[C@@H](C)[C@H](OC(C)=O)[C@@H]1C [RIFAPENTINE]
Not Active: IC50 (Estrogen receptor) | IC50 [1] | IC50 [2] | Ki [2] | IC50 [3] | IC50 (Cytochrome P450 1A2) | Ki (Cytochrome P450 1A2) | IC50 [4] | IC50 [5] | Ki [5]

Cc1cccc(C)c1OCC(C)N (stereo not given) [MEXILETINE]
Not Active: IC50 (Estrogen receptor) | IC50 [1] | IC50 [2] | Ki [2] | IC50 [3] | IC50 (Cytochrome P450 1A2) | Ki (Cytochrome P450 1A2) | IC50 [4] | IC50 [5] | Ki [5]

COc1cc2nc(N3CCN(C(=O)C4CCCO4)CC3)nc(N)c2cc1OC (stereo not given) [TERAZOSIN]
Not Active: IC50 (Estrogen receptor) | IC50 [1] | IC50 [2] | Ki [2] | IC50 [3] | IC50 (Cytochrome P450 1A2) | Ki (Cytochrome P450 1A2) | IC50 [4] | IC50 [5] | Ki [5]

CC(c1cc2ccccc2s1)N(O)C(N)=O (stereo not given) [ZILEUTON]
Not Active: IC50 (Estrogen receptor) | IC50 [1] | IC50 [2] | Ki [2] | IC50 [3] | IC50 (Cytochrome P450 1A2) | Ki (Cytochrome P450 1A2) | IC50 [4] | IC50 [5] | Ki [5]

O=C1C(CC[S+]([O-])c2ccccc2)C(=O)N(c2ccccc2)N1c1ccccc1 (stereo not given) [SULFINPYRAZONE]
Not Active: IC50 (Estrogen receptor) | IC50 [1] | IC50 [2] | Ki [2] | IC50 [3] | IC50 (Cytochrome P450 1A2) | Ki (Cytochrome P450 1A2) | IC50 [4] | IC50 [5] | Ki [5]

CCN(CC)CCNC(=O)c1cc(S(C)(=O)=O)ccc1OC [TIAPRIDE]
Not Active: IC50 (Estrogen receptor) | IC50 [1] | IC50 [2] | Ki [2] | IC50 [3] | IC50 (Cytochrome P450 1A2) | Ki (Cytochrome P450 1A2) | IC50 [4] | IC50 [5] | Ki [5]

CCCCOc1cc(CC2CNC(=O)N2)ccc1OC (stereo not given) [RO-201724]
Not Active: IC50 (Estrogen receptor) | IC50 [1] | IC50 [2] | Ki [2] | IC50 [3] | IC50 (Cytochrome P450 1A2) | Ki (Cytochrome P450 1A2) | IC50 [4] | IC50 [5] | Ki [5]
